Here are results for 28 compounds from patent US9242996B2 (Novartis AG, priority 2013, dated 2016).

Sequence of activated ERK2 (P28482 whole entry): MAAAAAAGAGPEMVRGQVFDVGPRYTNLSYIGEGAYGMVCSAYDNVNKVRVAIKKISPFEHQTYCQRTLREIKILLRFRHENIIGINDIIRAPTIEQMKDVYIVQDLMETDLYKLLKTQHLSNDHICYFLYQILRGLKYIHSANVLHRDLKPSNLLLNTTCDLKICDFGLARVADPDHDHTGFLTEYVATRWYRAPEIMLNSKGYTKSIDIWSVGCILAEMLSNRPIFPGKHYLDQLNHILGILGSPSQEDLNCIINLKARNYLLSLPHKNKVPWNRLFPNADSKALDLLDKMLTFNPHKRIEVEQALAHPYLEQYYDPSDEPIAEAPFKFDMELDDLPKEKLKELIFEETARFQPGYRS

For the assay, the target named is activated ERK2 (Homo sapiens (Human), UniProt P28482). Put plainly: Activated ERK2 (20 pM) Kinase Assay (AlphaScreen, ERKtide phosphorylation). To be noted: 0.02 nM ERK2, 400 nM ERKtide peptide, 35 μM ATP, 30 min preincubation. The assay is classed as biochemical. The method in brief:
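Activated human ERK2 (0.02 nM) preincubated 30 min with compounds, then 400 nM ERKtide and 35 μM ATP added for 4 h at ambient temperature in HEPES pH 7.5, MgCl2, DTT, Tween-20, BSA. EDTA stop; phospho-peptide read by AlphaScreen after overnight dark incubation; four-parameter IC50.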
A general note: Bead proximity is the source of the signal in Alpha formats.
As to `CNC[C@@H](NC(=O)c1ccc(-c2nc(C3CCOCC3)cnc2N)cc1F)c1cccc(Br)c1` [Example 380, (S)-4-(3-amino-6-(tetrahydro-2H-pyran-4-yl)pyrazin-2-yl)-N-(1-(3-bromophenyl)-2-(methylamino)ethyl)-2-fluorobenzamide], the IC50 (commonly the concentration needed to halve the response being measured) stood at 0.0097 nM.

Compound `CNC[C@@H](NC(=O)c1ccc(-c2nc([C@H]3CC[C@H](O)CC3)cnc2N)cc1F)c1cccc(Br)c1` [Example 381, 4-(3-amino-6-((1r,4S)-4-hydroxy-cyclohexyl)pyrazin-2-yl)-N-((S)-1-(3-bromophenyl)-2-(methylamino)ethyl)-2-fluorobenzamide] yielded an IC50 of 0.0209 nM. Against the preceding compound, the IC50 is about 2.2-fold higher.

For the compound `CO[C@H]1CC[C@H](c2cnc(N)c(-c3ccc(C(=O)N[C@H](CN)c4cc(F)cc(I)c4)c(F)c3)n2)CC1` [Example 382, N-((S)-2-amino-1-(3-fluoro-5-iodophenyl)ethyl)-4-(3-amino-6-((1r,4S)-4-methoxy-cyclohexyl)pyrazin-2-yl)-2-fluorobenzamide], 0.0107 nM corresponded to half-maximal inhibition (IC50).

With `CO[C@H]1CC[C@H](c2cnc(N)c(-c3ccc(C(=O)N[C@H](CN)c4cccc(Br)c4)c(F)c3)n2)CC1` [Example 383, N-((S)-2-amino-1-(3-bromophenyl)ethyl)-4-(3-amino-6-((1r,4S)-4-methoxy-cyclohexyl)pyrazin-2-yl)-2-fluorobenzamide], the IC50 came out at 0.0689 nM.

Compound `CSc1cccc([C@@H](CO)NC(=O)c2ccc(-c3nc(C4CCOCC4)cnc3N)cc2F)c1` [Example 387, (S)-4-(3-amino-6-(tetrahydro-2H-pyran-4-yl)pyrazin-2-yl)-2-fluoro-N-(2-hydroxy-1-(3-(methylthio)phenyl)ethyl)benzamide] showed an IC50 of 0.01 nM.

`CSc1cccc([C@@H](CO)NC(=O)c2ccc(-c3nc([C@H]4CC[C@H](O)CC4)cnc3N)cc2F)c1` [Example 388, 4-(3-amino-6-((1r,4S)-4-hydroxy-cyclohexyl)pyrazin-2-yl)-2-fluoro-N-((S)-2-hydroxy-1-(3-(methylthio)phenyl)ethyl)benzamide] came in with an IC50 of 0.0269 nM.

On to `Nc1ncc(C2CCOCC2)nc1-c1ccc(C(=O)N[C@H](CO)c2cc(F)cc(CCl)c2)c(F)c1` [Example 390, (S)-4-(3-amino-6-(tetrahydro-2H-pyran-4-yl)pyrazin-2-yl)-N-(1-(3-(chloromethyl)-5-fluorophenyl)-2-hydroxyethyl)-2-fluorobenzamide], for which inhibition was half-maximal at 0.0242 nM (IC50).

The compound `CSc1cc(F)cc([C@@H](CO)NC(=O)c2ccc(-c3cc(-c4cn(C)nc4C)cnc3N)cc2F)c1` [Example 394, (S)-4-(2-amino-5-(1,3-dimethyl-1H-pyrazol-4-yl)pyridin-3-yl)-2-fluoro-N-(1-(3-fluoro-5-(methylthio)phenyl)-2-hydroxyethyl) benzamide] displayed an IC50 of 0.0153 nM. Against the preceding compound, the IC50 is about 1.6-fold lower.

Compound `CSc1cc(F)cc([C@@H](CO)NC(=O)c2ccc(-c3nc(C4CCOCC4)cnc3N)cc2F)c1` [Example 395, (S)-4-(3-amino-6-(tetrahydro-2H-pyran-4-yl)pyrazin-2-yl)-2-fluoro-N-(1-(3-fluoro-5-(methylthio)phenyl)-2-hydroxyethyl) benzamide] registered an IC50 of 0.00827 nM.

With `CSc1cc(F)cc([C@@H](CO)NC(=O)c2ccc(-c3nc([C@H]4CC[C@H](O)CC4)cnc3N)cc2F)c1` [Example 396, 4-(3-amino-6-((1r,4S)-4-hydroxy-cyclohexyl)pyrazin-2-yl)-2-fluoro-N-((S)-1-(3-fluoro-5-(methylthio)phenyl)-2-hydroxyethyl) benzamide], the IC50 was 0.0198 nM.

For `C[C@@H](O)[C@@H](NC(=O)c1ccc(-c2nc([C@H]3CC[C@H](O)CC3)cnc2N)cc1F)c1cccc(Cl)c1` [Example 398, 4-(3-amino-6-((1r,4S)-4-hydroxy-cyclohexyl)pyrazin-2-yl)-N-((1S,2R)-1-(3-chlorophenyl)-2-hydroxypropyl)-2-fluorobenzamide], the IC50 was determined as 0.281 nM.

In turn, `CNC[C@@H](NC(=O)c1ccc(-c2nc([C@H]3CC[C@H](O)CC3)cnc2N)cc1F)c1cccc(Cl)c1` [Example 401, 4-(3-amino-6-((1r,4S)-4-hydroxy-cyclohexyl)pyrazin-2-yl)-N-((S)-1-(3-chlorophenyl)-2-(methylamino)ethyl)-2-fluorobenzamide] had an IC50 of 0.0463 nM.

`[N-]=[N+]=NC[C@@H](NC(=O)c1ccc(-c2nc(C3CCOCC3)cnc2N)cc1F)c1cccc(Cl)c1` [Example 404, (S)-4-(3-amino-6-(tetrahydro-2H-pyran-4-yl)pyrazin-2-yl)-N-(2-azido-1-(3-chlorophenyl)ethyl)-2-fluorobenzamide] had an IC50 of 0.115 nM. Against the preceding compound, the IC50 is about 2.5-fold higher.

As to `CC(=O)NC[C@@H](NC(=O)c1ccc(-c2nc([C@H]3CC[C@H](O)CC3)cnc2N)cc1F)c1cccc(Cl)c1` [Example 405, N-((S)-2-acetamido-1-(3-chlorophenyl)ethyl)-4-(3-amino-6-((1r,4S)-4-hydroxy-cyclohexyl)pyrazin-2-yl)-2-fluorobenzamide], the IC50 turned out to be 0.238 nM. This IC50 lies about 2.1-fold higher than the previous one.

Regarding `CO[C@H]1CC[C@H](c2cnc(N)c(-c3ccc(C(=O)N[C@H](CNC(C)=O)c4cccc(Cl)c4)c(F)c3)n2)CC1` [Example 406, N-((S)-2-acetamido-1-(3-chlorophenyl)ethyl)-4-(3-amino-6-((1r,4S)-4-methoxy-cyclohexyl)pyrazin-2-yl)-2-fluorobenzamide], the midpoint of inhibition, the IC50, lay at 0.249 nM. This IC50 and that of the compound before are within 1.5-fold of each other.

`COC(=O)NC[C@@H](NC(=O)c1ccc(-c2nc(C3CCOCC3)cnc2N)cc1F)c1cccc(Cl)c1` [Example 407, (S)-methyl (2-(4-(3-amino-6-(tetrahydro-2H-pyran-4-yl)pyrazin-2-yl)-2-fluoro-benzamido)-2-(3-chlorophenyl)ethyl)carbamate] yielded an IC50 of 0.333 nM.

Compound `CC(=O)NC[C@@H](NC(=O)c1ccc(-c2nc(C3CCOCC3)cnc2N)cc1F)c1cc(F)cc(Br)c1` [Example 408, (S)-N-(2-acetamido-1-(3-bromo-5-fluorophenyl)ethyl)-4-(3-amino-6-(tetrahydro-2H-pyran-4-yl)pyrazin-2-yl)-2-fluorobenzamide] had an IC50 of 0.0201 nM.

Take `COC(=O)NC[C@@H](NC(=O)c1ccc(-c2nc(C3CCOCC3)cnc2N)cc1F)c1cccc(Br)c1` [Example 409, (S)-methyl (2-(4-(3-amino-6-(tetrahydro-2H-pyran-4-yl)pyrazin-2-yl)-2-fluoro-benzamido)-2-(3-bromophenyl)ethyl)carbamate]: the IC50 amounted to 0.225 nM. Compared with the last compound, the IC50 is about 11-fold higher.

Consider `COC(=O)NC[C@@H](NC(=O)c1ccc(-c2nc(C3CCOCC3)cnc2N)cc1F)c1cc(F)cc(Br)c1` [Example 410, (S)-methyl (2-(4-(3-amino-6-(tetrahydro-2H-pyran-4-yl)pyrazin-2-yl)-2-fluoro-benzamido)-2-(3-bromo-5-fluorophenyl)ethyl) carbamate], for which the concentration for half-maximal inhibition (IC50) turned out to be 0.0943 nM.

For `Nc1ncc(C2CCOCC2)nc1-c1ccc(C(=O)N[C@H](CNCCF)c2cc(F)cc(Br)c2)c(F)c1` [Example 411, (S)-4-(3-amino-6-(tetrahydro-2H-pyran-4-yl)pyrazin-2-yl)-N-(1-(3-bromo-5-fluorophenyl)-2-((2-fluoroethyl)amino)ethyl)-2-fluorobenzamide], half-maximal inhibition (IC50) required 0.0743 nM.

Turning to `Nc1ncc([C@H]2CC[C@H](O)CC2)nc1-c1ccc(C(=O)N[C@H](CNCCF)c2cc(F)cc(Br)c2)c(F)c1` [Example 412, 4-(3-amino-6-((1r,4S)-4-hydroxy-cyclohexyl)pyrazin-2-yl)-N-((S)-1-(3-bromo-5-fluorophenyl)-2-((2-fluoroethyl)amino)ethyl)-2-fluorobenzamide], half-maximal inhibition (IC50) required 0.374 nM.

As for `NC[C@@H](NC(=O)c1ccc(-c2nc(C3CCOCC3)cnc2N)cc1F)c1cccc(Br)c1` [Example 414, (S)-N-(2-amino-1-(3-bromophenyl)ethyl)-4-(3-amino-6-(tetrahydro-2H-pyran-4-yl)pyrazin-2-yl)-2-fluorobenzamide], the IC50 worked out at 0.02 nM.

Compound `Nc1ncc(C2CCC(F)(F)CC2)nc1-c1ccc(C(=O)N[C@H](CO)c2cccc(Cl)c2)c(F)c1` [Example 435, (S)-4-(3-amino-6-(4,4-difluoro-cyclohexyl)pyrazin-2-yl)-N-(1-(3-chlorophenyl)-2-hydroxyethyl)-2-fluorobenzamide] returned a half-maximal inhibitory concentration (IC50) of 0.105 nM. Against the preceding compound, the IC50 is about 5.2-fold higher.

As for `Nc1ncc([C@H]2CC[C@H](O)CC2)nc1-c1ccc(C(=O)N[C@H](CO)c2cccc(Br)c2)c(F)c1` [Example 436, 4-(3-amino-6-((1r,4S)-4-hydroxy-cyclohexyl)pyrazin-2-yl)-N-((S)-1-(3-bromophenyl)-2-hydroxyethyl)-2-fluorobenzamide], the IC50 turned out to be 0.0485 nM.

Compound `Nc1ncc([C@H]2CC[C@@H](O)CC2)cc1-c1ccc(C(=O)N[C@H](CO)c2cccc(Cl)c2)c(F)c1` [Example 440, 4-(2-amino-5-((1s,4R)-4-hydroxy-cyclohexyl)pyridin-3-yl)-N-((S)-1-(3-chlorophenyl)-2-hydroxyethyl)-2-fluorobenzamide] returned an IC50 of 0.0701 nM.

For the compound `COC(=O)N[C@H]1CC[C@H](c2cnc(N)c(-c3ccc(C(=O)N[C@H](CO)c4cc(F)cc(Br)c4)c(F)c3)n2)CC1` [Example 441, Methyl ((1S,4r)-4-(5-amino-6-(4-(((S)-1-(3-bromo-5-fluorophenyl)-2-hydroxyethyl)carbamoyl)-3-fluorophenyl)pyrazin-2-yl)cyclohexyl) carbamate], half-maximal inhibition (IC50) required 0.0559 nM.

For the compound `Nc1ncc([C@H]2CC[C@H](O)CC2)cc1-c1ccc(C(=O)N[C@H](CO)c2cccc(Cl)c2)c(F)c1` [Example 442, 4-(2-amino-5-((1r,4S)-4-hydroxy-cyclohexyl)pyridin-3-yl)-N-((S)-1-(3-chlorophenyl)-2-hydroxyethyl)-2-fluorobenzamide], inhibition was half-maximal at 0.339 nM (IC50).

The compound `C[C@@H](NC(=O)c1ccc(-c2cc([C@H]3CC[C@H](O)CC3)cnc2N)cc1F)c1cc(F)cc(S(C)(=O)=O)c1` [Example 443, 4-(2-amino-5-((1r,4R)-4-hydroxy-cyclohexyl)pyridin-3-yl)-2-fluoro-N-((R)-1-(3-fluoro-5-(methylsulfonyl)phenyl)ethyl) benzamide] gave an IC50 of 0.345 nM.
